# pIC50: −log10 of the molar value.
# How the values were obtained:
# Prp8 intein [1] = target: T1, Prp8 intein (Cryptococcus gattii, UniProt E6R027); assay: Split GFP-Prp8i intein splicing assay; type: biochemical; details: split GFP-Prp8 intein splicing
# Method: Cloning, expression and purfication—The split GFP-Prp8i was constructed using a mega-PCR mutagenesis approach. […] After digestion with Dpn I restriction enzyme, the PCR product was transformed into DH5α Escherichia coli. Clones were verified by plasmid DNA sequencing. The expression, refolding and purification of the GFP-Prp8i fusion protein were carried out as described previously.
# […] Then 100 μl 2×TCEP was added to a final concentration of 20 μM. The reactions were incubated at 25° C. overnight. […] Two readings were taken, one prior to addition of TCEP (I0) and one after incubation overnight with TCEP (If). Fluorescence/luminescence differences (ΔFluorescence or ΔLuminescence) were defined as If−I0 for each well. […] DMF control served as 100% splicing activity.
# (§1) Split GFP-Prp8 and CJGFP-Prp8 intein splicing assays—Using black and clear bottom 96-well plates, the DPNB-treated, -refolded and -concentrated GFP-Prp8 or CfGFP-Prp8 fusion protein (0.5 μM) was incubated with compounds or Dimethylsulfoxide (DMSO) solvent control for 30 min at 25° C. in a 100 μl intein splicing buffer (20 mM Bis-tris propane, 0.5 M NaCl, 0.5 M arginine, 1 mM EDTA, and 0.05% CHAPS). Then 100 μl 2×TCEP was added to a final concentration of 20 μM. The reactions were incubated at 25° C. overnight. […] Two readings were taken, one prior to addition of TCEP (I0) and one after incubation overnight with TCEP (If). Fluorescence/luminescence differences (ΔFluorescence or ΔLuminescence) were defined as If−I0 for each well. […] DMSO control served as 100% splicing activity.
# Prp8 intein [2] = target: T1, Prp8 intein; assay: Split Renilla luciferase RLuc-Prp8 intein splicing assay; type: biochemical; details: split Renilla luciferase RLuc-Prp8 intein splicing
# Method: Split luciferase Prp8 intein splicing assay—The split RLuc-Prp8 fusion protein was carried out and monitored using a Veritas luminometer, as described previously.
# (§2) Split luciferase RLuc-Prp8 and NnLuc-Prp8 intein splicing assays—The split RLuc-Prp8 intein splicing assay was carried out and monitored using a Veritas luminometer, as described previously. […] Microbes. Infect. […] For NnLuc-Prp8 intein splicing assay, the NnLuc-prp8 is diluted in assay buffer (50 mM Tris, 0.1% BSA, 1 mM EDTA, pH 7.4) and 50 ul is added to each well in 96 well black plates. Test molecules or the solvent was added and incubated for 30 to 60 min. A splicing inducer TCEP (50 ul, 100 μM) is added and incubated for 24 h. Luciferase substrate (Furimazine, 25 ul 1:10,000 diluted) is added and luminescence is read using a luminescence reader. IC50 is calculated using Graphpad prism.
# in vitro = type: cell-based, human; details: human, CC50 A549
# Method: Cytotoxicity—Cytotoxicity assays were carried out using human lung carcinoma cell line A549, as described (Chen et al., “Selective Inhibition of the West Nile Virus Methyltransferase by Nucleoside Analogs,” Antiviral Research 97(3):232-239 (2013), which is hereby incorporated by reference in its entirety). Briefly, the A549 cells (5×10^3) were incubated with/without compounds in a 96-well plate at 37° C. for 48 h. Cell viability was determined using the MTT assay (ATCC) as was described previously (Chen et al., “Selective Inhibition of the West Nile Virus Methyltransferase by Nucleoside Analogs,” Antiviral Research 97(3):232-239 (2013) and Brecher et al., “Identification and Characterization of Novel Broad-Spectrum Inhibitors of the Flavivirus Methyltransferase,” ACS Infectious Diseases 1(8):340-349 (2015), both of which are hereby incorporated by reference in their entirety). N=3.
# Cytotoxicity—Cytotoxicity assays were carried out using human lung carcinoma cell line A549, as described. Chen et al., “Selective Inhibition of the West Nile Virus Methyltransferase by Nucleoside Analogs,” Antiviral Res. 97:232-9 (2013), which is hereby incorporated by reference in its entirety. Briefly, the A549 cells (5×10^3) were incubated with/without compounds in a 96-well plate at 37° C. for 48 h. Cell viability was determined using the MTT assay (ATCC) as was described previously (Chen et al., “Selective Inhibition of the West Nile Virus Methyltransferase by Nucleoside Analogs,” Antiviral Research 97(3):232-239 (2013) and Brecher et al., “Identification and Characterization of Novel Broad-Spectrum Inhibitors of the Flavivirus Methyltransferase,” ACS Infectious Diseases 1(8):340-349 (2015), both of which are hereby incorporated by reference in their entirety). N=3.
# C. neoformans H99 strain = assay: Fungal susceptibility test, broth microdilution MIC; type: cell-based, Cryptococcus neoformans; details: Cryptococcus neoformans, H99STRAIN; C. neoformans H99, microbroth dilution; read-out: MIC H99
# Method: Fungal susceptibility test—The fungal susceptibility test was carried out with a compound concentration series as described. […] The broth microdilution method was used to determine the compound MIC values against C. neoformans.
# Fungal susceptibility test—The fungal susceptibility test was carried out with a compound concentration series as described. […] Microbes. Infect. […] The broth microdilution method was used to determine the compound MIC values against C. neoformans.
# Prp8 intein [3] = target: T1, Prp8 intein; assay: Split Cys-free (Cf) GFP-Prp8 intein splicing assay; type: biochemical; details: read-out: IC50 CfGFP-Prp8 (converted)
# Method: (§3) The constructs for Cys-free (Cf) GFP-Prp8 and Cys-free nanoluciferase NnLuc-Prp8 were codon-optimized, synthesized, and cloned into the pET28a vector using the NcoI and XhoI sites by Gene Universal (Gene Universal, Newark Del.). […] The expression, refolding and purification of the CfGFP-Prp8 and NnLuc-Prp8 fusion proteins were carried out as described previously. […] Microbes. Infect.
# as §1
# Prp8 intein [4] = target: T1, Prp8 intein; assay: Split nanoluciferase NnLuc-Prp8 intein splicing assay; type: biochemical
# Method: as §3, §2
# T1 sequence (E6R027 entry or part of it): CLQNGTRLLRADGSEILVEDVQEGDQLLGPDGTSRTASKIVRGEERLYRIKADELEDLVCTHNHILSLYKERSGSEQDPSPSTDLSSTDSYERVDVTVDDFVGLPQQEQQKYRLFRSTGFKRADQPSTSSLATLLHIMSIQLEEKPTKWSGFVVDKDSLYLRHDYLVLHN
Compound,pIC50 (Prp8 intein [1]),pIC50 (Prp8 intein [2]),CC50 at 48 h (in vitro),MIC (C. neoformans H99 strain),IC50 (Prp8 intein [3]),pIC50 (Prp8 intein [4])
"O=C(Nc1ccc(F)cc1F)c1ncsc1S(=O)(=O)c1ccc(Cl)cc1 [JMX0515, 5-((4-Chlorophenyl)sulfonyl)-N-(2,4-difluorophenyl)thiazole-4-carboxamide]",< 4.30,4.42,210 µM,> 100 µM,–,–
"O=C(Nc1ccccc1F)c1ncsc1S(=O)(=O)c1ccc(Cl)cc1 [JMX0516, 5-((4-Chlorophenyl)sulfonyl)-N-(2-fluorophenyl)thiazole-4-carboxamide]",4.31,4.88,144 µM,> 100 µM,–,–
"O=C(Nc1cccc(F)c1)c1ncsc1S(=O)(=O)c1ccc(Cl)cc1 [JMX0517, 5-((4-Chlorophenyl)sulfonyl)-N-(3-fluorophenyl)thiazole-4-carboxamide]",< 4.30,4.55,161 µM,> 100 µM,–,–
"O=C(Nc1ccc(Cl)cc1)c1ncsc1S(=O)(=O)c1ccc(Cl)cc1 [JMX0518, N-(4-Chlorophenyl)-5-((4-chlorophenyl)sulfonyl)thiazole-4-carboxamide]",4.55,5.19,57.3 µM,50 µM,–,–
"O=C(Nc1ccc(Cl)cc1Cl)c1ncsc1S(=O)(=O)c1ccc(Cl)cc1 [JMX0519, 5-((4-Chlorophenyl)sulfonyl)-N-(2,4-dichlorophenyl)thiazole-4-carboxamide]",4.30,4.93,245 µM,> 100 µM,–,–
"O=C(Nc1ccc(F)c(F)c1)c1ncsc1S(=O)(=O)c1ccc(Cl)cc1 [JMX0520, 5-((4-Chlorophenyl)sulfonyl)-N-(3,4-difluorophenyl)thiazole-4-carboxamide]",< 4.30,4.56,81.6 µM,> 100 µM,–,–
"O=C(Nc1ccc(C(F)(F)F)cc1)c1ncsc1S(=O)(=O)c1ccc(Cl)cc1 [JMX0521, 5-((4-Chlorophenyl)sulfonyl)-N-(4-(trifluoromethyl)phenyl)thiazole-4-carboxamide]",4.30,4.53,54.1 µM,> 100 µM,–,–
"O=C(Nc1cc(F)cc(C(F)(F)F)c1)c1ncsc1S(=O)(=O)c1ccc(Cl)cc1 [JMX0522, 5-((4-Chlorophenyl)sulfonyl)-N-(3-fluoro-5-(trifluoromethyl)phenyl) thiazole-4-carboxamide]",4.63,4.69,97.7 µM,100 µM,–,–
"O=C(Nc1ccc(C(F)(F)F)nc1)c1ncsc1S(=O)(=O)c1ccc(Cl)cc1 [JMX0523, 5-((4-Chlorophenyl)sulfonyl)-N-(6-(trifluoromethyl)pyridin-3-yl) thiazole-4-carboxamide]",< 4.30,4.43,114 µM,> 100 µM,–,–
"O=C(Nc1ccc(F)nc1)c1ncsc1S(=O)(=O)c1ccc(Cl)cc1 [JMX0524, 5-((4-Chlorophenyl)sulfonyl)-N-(6-fluoropyridin-3-yl)thiazole-4-carboxamide]",< 4.30,5.11,174 µM,> 100 µM,–,–
"O=C(Nc1ccc(F)cc1)c1ncsc1S(=O)(=O)c1ccc(Cl)cc1 [JMX0525, 5-((4-Chlorophenyl)sulfonyl)-N-(4-fluorophenyl)thiazole-4-carboxamide]",< 4.30,5.19,309 µM,> 100 µM,–,–
"O=C(NCc1ccc(F)cc1)c1ncsc1S(=O)(=O)c1ccc(Cl)cc1 [JMX0541, 5-((4-Chlorophenyl)sulfonyl)-N-(4-fluorobenzyl)thiazole-4-carboxamide]",< 4.30,4.97,114 µM,100 µM,–,–
"O=C(Nc1ccc(F)cc1)c1nnsc1Sc1ccc(Cl)cc1 [JMX0564, 5-((4-Chlorophenyl)thio)-N-(4-fluorophenyl)-1,2,3-thiadiazole-4-carboxamide]",4.25,4.80,418 µM,> 100 µM,–,–
"O=C(Nc1ccc(F)cc1)c1nnsc1[S+]([O-])c1ccc(Cl)cc1 (centres unmarked) [JMX0565-1, 5-((4-Chlorophenyl)sulfinyl)-N-(4-fluorophenyl)-1,2,3-thiadiazole-4-carboxamide]",5.15,4.78,32.5 µM,0.097 µM,–,–
"O=C(Nc1ccc(F)cc1)c1nnsc1S(=O)(=O)c1ccc(F)cc1F [JMX1062, 5-((2,4-Difluorophenyl)sulfonyl)-N-(4-fluorophenyl)-1,2,3-thiadiazole-4-carboxamide]",–,–,65.4 µM,> 50 µM,38.2 µM,4.66
"O=C(Nc1ccc(F)cc1)c1nnsc1S(=O)(=O)c1cccc(C(F)(F)F)c1 [JMX1063, N-(4-Fluorophenyl)-5-((3-(trifluoromethyl)phenyl)sulfonyl)-1,2,3-thiadiazole-4-carboxamide]",–,–,137 µM,6.25 µM,35 µM,4.55
"O=C(Nc1ccc(F)cc1)c1nnsc1[S+]([O-])c1cccc(C(F)(F)F)c1 (centres unmarked) [JMX1063-2, N-(4-Fluorophenyl)-5-((3-(trifluoromethyl)phenyl)sulfinyl)-1,2,3-thiadiazole-4-carboxamide]",–,–,93.8 µM,6.25 µM,29.2 µM,4.91
"O=C(Nc1ccc(F)cc1)c1nnsc1S(=O)(=O)c1ccc(Cl)c(Cl)c1 [JMX1064, 5-((3,4-Dichlorophenyl)sulfonyl)-N-(4-fluorophenyl)-1,2,3-thiadiazole-4-carboxamide]",–,–,78.4 µM,1.56 µM,32.6 µM,4.59
"O=C(Nc1ccc(F)cc1)c1nnsc1[S+]([O-])c1ccc(Cl)c(Cl)c1 (centres unmarked) [JMX1064-2, 5-((3,4-Dichlorophenyl)sulfinyl)-N-(4-fluorophenyl)-1,2,3-thiadiazole-4-carboxamide]",–,–,122 µM,> 50 µM,19.8 µM,4.46
"O=C(Nc1cccc(F)c1)c1nnsc1S(=O)(=O)c1ccc(Cl)cc1 [JMX 871, 5-((4-Chlorophenyl)sulfonyl)-N-(3-fluorophenyl)-1,2,3-thiadiazole-4-carboxamide]",–,–,140 µM,3.12 µM,35.4 µM,4.57
